In paper PMC6273912, “Novel 5-Substituted 2-(Aylmethylthio)-4-chloro-N-(5-aryl-1,2,4-triazin-3-yl)benzenesulfonamides: Synthesis, Molecular Structure, Anticancer Activity, Apoptosis-Inducing Activity and Metabolic Stability” (Molecules, 2016):

What was measured:
Format in all cases: cell-based, human
[1] = test system: MCF-7 (breast cancer); assay: MTT cell viability assay, MCF-7; settings: mean ± SD
Procedure: (§1) All chemicals, if not stated otherwise, were obtained from Sigma-Aldrich (St. Louis, MO, USA). The MCF-7 cell line was purchased from Cell Lines Services (Eppelheim, Germany), the HeLa and HCT-116 cell lines were obtained from the Department of Microbiology, Tumor and Cell Biology, Karolinska Institute (Stockholm, Sweden). Cells were cultured in Dulbecco’s modified Eagle’s medium (DMEM) supplemented with 10% fetal bovine serum, 2 mM glutamine, 100 units/mL penicillin, and 100 μg/mL streptomycin. Cultures were maintained in a humidified atmosphere with 5% CO2 at 37 °C in an incubator (HeraCell, Heraeus, Langenselbold, Germany).
(§2) Cell viability was determined using the MTT (3-(4,5-dimethylthiazol-2-yl)-2,5-diphenyl-tetrazoliumbromide) assay. Stock solutions of the studied compounds were prepared in 100% DMSO. […] Cells were seeded in 96-well plates at a density of 5 × 10^3 cells/well and treated for 72 h with the examined compounds in the concentration range 1–100 μM (1, 10, 25, 50 and 100 μM). Following treatment, MTT (0.5 mg/mL) was added to the medium and cells were further incubated for 2 h at 37 °C. Cells were lysed with DMSO and the absorbance of the formazan solution was measured at 550 nm with a plate reader (1420 multilabel counter, Victor, Jügesheim, Germany). […] The experiment was performed in triplicate. Values are expressed as the mean ± SD of at least three independent experiments.

[2] = test system: HCT-116 (colon cancer); assay: MTT cell viability assay, HCT-116; settings: Homo sapiens, HCT-116, 72 h, 72 h of incubation, mean ± SD
Procedure: as §1, §2

[3] = test system: HeLa (cervical cancer); assay: MTT cell viability assay, HeLa; settings: Homo sapiens, 72 h; for IC50: 72 h of incubation, mean ± SD
Procedure: as §1, §2

[4] = Homo sapiens, MCF7, 72 h of incubation

| SMILES | IC50 ([1]; 72 h of incubation) [µM] | IC50 [2] [µM] | IC50 [3] [µM] | IC50 [1, 4] [µM] | viability at 100 µM ([3]; HeLa, 100 μM, read-out: Viability of cell line at 100 μM (HeLa)) [%] |
| --- | --- | --- | --- | --- | --- |
| N.N.[Cl][Pt][Cl] [Cisplatin, reference compound] | 3 ± 0.1 |  |  |  |  |
| Cc1cc(S(=O)(=O)Nc2nncc(-c3cccc(F)c3)n2)c(SCc2ccccc2)cc1Cl [Compound 27, 2-Benzylthio-4-chloro-N-[5-(3-fluorophenyl)-1,2,4-triazin-3-yl]-5-methylbenzenesulfonamide] |  | 75 ± 1 | 84 ± 1 | 80 ± 2 |  |
| COc1ccc(-c2cnnc(NS(=O)(=O)c3cc(C)c(Cl)cc3SCc3ccccc3)n2)cc1 [Compound 29, 2-Benzylthio-4-chloro-N-[5-(4-methoxyphenyl)-1,2,4-triazin-3-yl]-5-methylbenzenesulfonamide] |  | 720 ± 36 | 190 ± 7 | 110 ± 2 |  |
| COc1cc(-c2cnnc(NS(=O)(=O)c3cc(C)c(Cl)cc3SCc3ccccc3)n2)cc(OC)c1OC [Compound 32, 2-Benzylthio-4-chloro-5-methyl-N-[5-(3,4,5-trimethoxyphenyl)-1,2,4-triazin-3-yl]benzenesulfonamide] |  | 88 ± 3 | 87 ± 4 | 87 ± 4 |  |
| Cc1cc(S(=O)(=O)Nc2nncc(-c3cccc(F)c3)n2)c(SCc2ccc(C(F)(F)F)cc2)cc1Cl [Compound 33, 4-Chloro-N-[5-(3-fluorophenyl)-1,2,4-triazin-3-yl]-5-methyl-2-[4-(trifluoromethyl)benzylthio]benzenesulfonamide] |  | 67 ± 1 | 76 ± 3 | 88 ± 1 |  |
| COc1ccc(-c2cnnc(NS(=O)(=O)c3cc(C)c(Cl)cc3SCc3c(C)noc3C)n2)cc1 [Compound 41, 4-Chloro-2-[(3,5-dimethylizoxazol-4-yl)methylthio]-N-[5-(4-methoxyphenyl)-1,2,4-triazin-3-yl]-5-methyl-benzenesulfonamide] |  | 97 ± 2 | 85 ± 1 | 99 ± 1 |  |
| COc1ccc(-c2cnnc(NS(=O)(=O)c3cc(C(=O)Nc4ccccc4)c(Cl)cc3SCc3ccccc3)n2)cc1 [Compound 42, 4-Benzylthio-2-chloro-5-{N-[5-(4-methoxyphenyl)-1,2,4-triazin-3-yl]sulfamoyl}-N-phenylbenzamide] |  | 77 ± 2 | 82 ± 1 | 83 ± 2 |  |
| COc1cccc(-c2cnnc(NS(=O)(=O)c3cc(C(=O)Nc4ccccc4)c(Cl)cc3SCc3ccccc3)n2)c1 [Compound 43, 4-Benzylthio-2-chloro-5-{N-[5-(3-methoxyphenyl)-1,2,4-triazin-3-yl]sulfamoyl}-N-phenylbenzamide] |  | 92 ± 3 | 130 ± 10 | 87 ± 2 |  |
| COc1ccc(-c2cnnc(NS(=O)(=O)c3cc(C(=O)Nc4ccccc4)c(Cl)cc3SCc3ccccc3)n2)cc1OC [Compound 44, 4-Benzylthio-2-chloro-5-{N-[5-(3,4-dimethoxyphenyl)-1,2,4-triazin-3-yl]sulfamoyl}-N-phenylbenzamide] |  | 160 ± 6 | 160 ± 8 | 90 ± 5 |  |
| O=C(Nc1ccc(Cl)cc1)c1cc(S(=O)(=O)Nc2nncc(-c3cccc(F)c3)n2)c(SCc2ccccc2)cc1Cl [Compound 45, 4-Benzylthio-2-chloro-N-(4-chlorophenyl)-5-{N-[5-(3-fluorophenyl)-1,2,4-triazin-3-yl]sulfamoyl}benzamide] |  | 97 ± 2 | 82 ± 1 | 90 ± 1 |  |
| COc1cccc(-c2cnnc(NS(=O)(=O)c3cc(C(=O)Nc4ccc(Cl)cc4)c(Cl)cc3SCc3ccccc3)n2)c1 [Compound 48, 4-Benzylthio-2-chloro-N-(4-chlorophenyl)-5-{N-[5-(3-methoxyphenyl)-1,2,4-triazin-3-yl]sulfamoyl}-benzamide] |  | 80 ± 3 | 80 ± 2 | 87 ± 3 |  |
| COc1ccc(-c2cnnc(NS(=O)(=O)c3cc(C(=O)Nc4ccc(Cl)cc4)c(Cl)cc3SCc3ccccc3)n2)cc1OC [Compound 49, 4-Benzylthio-2-chloro-N-(4-chlorophenyl)-5-{N-[5-(3,4-dimethoxyphenyl)-1,2,4-triazin-3-yl]sulfamoyl}-benzamide] |  | 110 ± 2 | 120 ± 6 | 81 ± 5 |  |
| COc1cc(-c2cnnc(NS(=O)(=O)c3cc(C(=O)Nc4ccc(Cl)cc4)c(Cl)cc3SCc3ccccc3)n2)cc(OC)c1OC [Compound 50, 4-Benzylthio-2-chloro-N-(4-chlorophenyl)-5-{N-[5-(3,4,5-trimethoxyphenyl)-1,2,4-triazin-3-yl]sulfamoyl}-benzamide] |  | 115 ± 3 | 130 ± 8 | 120 ± 4 |  |
| Cc1ccc(NC(=O)c2cc(S(=O)(=O)Nc3nncc(-c4cccc(F)c4)n3)c(SCc3ccccc3)cc2Cl)cc1 [Compound 51, 4-Benzylthio-2-chloro-5-{N-[5-(3-fluorophenyl)-1,2,4-triazin-3-yl]sulfamoyl}-N-(4-methylphenyl)benzamide] |  | 190 ± 13 |  | 95 ± 5 | 100 |
| COc1ccc(-c2cnnc(NS(=O)(=O)c3cc(C(=O)Nc4ccc(C)cc4)c(Cl)cc3SCc3ccccc3)n2)cc1 [Compound 53, 4-Benzylthio-2-chloro-5-{N-[5-(4-methoxyphenyl)-1,2,4-triazin-3-yl]sulfamoyl}-N-(4-methylphenyl)-benzamide] |  | 76 ± 2 | 74 ± 2 | 88 ± 2 |  |
| COc1cccc(-c2cnnc(NS(=O)(=O)c3cc(C(=O)Nc4ccc(C)cc4)c(Cl)cc3SCc3ccccc3)n2)c1 [Compound 54, 4-Benzylthio-2-chloro-5-{N-[5-(3-methoxyphenyl)-1,2,4-triazin-3-yl]sulfamoyl}-N-(4-methylphenyl)benzamide] |  | 84 ± 5 | 82 ± 1 | 96 ± 5 |  |
| COc1ccc(-c2cnnc(NS(=O)(=O)c3cc(C(=O)Nc4ccc(C)cc4)c(Cl)cc3SCc3ccccc3)n2)cc1OC [Compound 55, 4-Benzylthio-2-chloro-5-{N-[5-(3,4-dimethoxyphenyl)-1,2,4-triazin-3-yl]sulfamoyl}-N-(4-methylphenyl)-benzamide] |  | 150 ± 3 | 105 ± 4 | 150 ± 6 |  |
| COc1cc(-c2cnnc(NS(=O)(=O)c3cc(C(=O)Nc4ccc(C)cc4)c(Cl)cc3SCc3ccccc3)n2)cc(OC)c1OC [Compound 56, 4-Benzylthio-2-chloro-N-(4-methylphenyl)-5-{N-[5-(3,4,5-trimethoxyphenyl)-1,2,4-triazin-3-yl]sulfamoyl}-benzamide] |  | 75 ± 2 | 80 ± 2 | 89 ± 3 |  |
| COc1ccc(NC(=O)c2cc(S(=O)(=O)Nc3nncc(-c4ccc(OC)cc4)n3)c(SCc3ccccc3)cc2Cl)cc1 [Compound 57, 4-Benzylthio-2-chloro-N-(4-methoxyphenyl)-5-{N-[5-(4-methoxyphenyl)-1,2,4-triazin-3-yl]sulfamoyl}benzamide] |  | 73 ± 1 | 80 ± 1 | 90 ± 1 |  |
| COc1ccc(NC(=O)c2cc(S(=O)(=O)Nc3nncc(-c4cccc(OC)c4)n3)c(SCc3ccccc3)cc2Cl)cc1 [Compound 58, 4-Benzylthio-2-chloro-N-(4-methoxyphenyl)-5-{N-[5-(3-methoxyphenyl)-1,2,4-triazin-3-yl]sulfamoyl}benzamide] |  | 98 ± 2 | 88 ± 6 | 92 ± 6 |  |
| COc1ccc(NC(=O)c2cc(S(=O)(=O)Nc3nncc(-c4ccc(OC)c(OC)c4)n3)c(SCc3ccccc3)cc2Cl)cc1 [Compound 59, 4-Benzylthio-2-chloro-5-{N-[5-(3,4-dimethoxyphenyl)-1,2,4-triazin-3-yl]sulfamoyl}-N-(4-methoxyphenyl)-benzamide] |  | 140 ± 5 | 150 ± 2 | 100 ± 5 |  |
| COc1ccc(NC(=O)c2cc(S(=O)(=O)Nc3nncc(-c4cc(OC)c(OC)c(OC)c4)n3)c(SCc3ccccc3)cc2Cl)cc1 [Compound 60, 4-Benzylthio-2-chloro-N-(4-methoxyphenyl)-5-{N-[5-(3,4,5-trimethoxyphenyl)-1,2,4-triazin-3-yl]sulfamoyl}-benzamide] |  | 230 ± 18 | 230 ± 5 | 270 ± 13 |  |
